Key:
Conditions in all cases: binder
CaMK1g = CaMK1g (Homo sapiens, UniProt Q96NX5)
NEK7 = NEK7 (Homo sapiens, UniProt Q8TDX7)
MELK = MELK (Homo sapiens, UniProt Q14680)
FGFR2 = FGFR2 (Homo sapiens, UniProt P21802)
MARK3 = MARK3 (Homo sapiens, UniProt P27448)
CK2a1 = CK2a1 (Homo sapiens, UniProt P68400)
DCAMKL1 = target: T1, DCAMKL1 (Homo sapiens, UniProt O15075)
T1 sequence (O15075 1-740): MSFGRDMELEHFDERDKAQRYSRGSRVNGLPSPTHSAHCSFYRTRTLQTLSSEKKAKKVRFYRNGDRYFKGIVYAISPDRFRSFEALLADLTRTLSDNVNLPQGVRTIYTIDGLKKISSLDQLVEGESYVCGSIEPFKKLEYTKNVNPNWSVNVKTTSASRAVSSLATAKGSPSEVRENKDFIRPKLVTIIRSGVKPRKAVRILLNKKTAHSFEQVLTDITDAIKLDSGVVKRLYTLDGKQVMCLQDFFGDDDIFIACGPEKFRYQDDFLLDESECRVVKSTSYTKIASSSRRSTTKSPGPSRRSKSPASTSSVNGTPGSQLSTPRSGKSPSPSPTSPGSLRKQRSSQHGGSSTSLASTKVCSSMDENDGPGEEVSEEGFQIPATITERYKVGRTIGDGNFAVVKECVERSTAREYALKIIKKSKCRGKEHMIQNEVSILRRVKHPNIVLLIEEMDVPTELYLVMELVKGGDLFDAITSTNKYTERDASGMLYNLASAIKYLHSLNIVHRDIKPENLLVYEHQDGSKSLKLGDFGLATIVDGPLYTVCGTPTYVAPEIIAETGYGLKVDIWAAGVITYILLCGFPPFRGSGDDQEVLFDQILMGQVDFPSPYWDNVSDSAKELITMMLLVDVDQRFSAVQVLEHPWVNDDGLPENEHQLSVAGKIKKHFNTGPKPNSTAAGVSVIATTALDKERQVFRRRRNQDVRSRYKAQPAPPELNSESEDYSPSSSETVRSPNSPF

PIM1 = PIM1 (Homo sapiens, UniProt P11309)
FES = FES (Homo sapiens, UniProt P07332)
GPRK5 = GPRK5 (Homo sapiens, UniProt P34947)
Erk2 = Erk2 (Homo sapiens, UniProt P28482)
EphB3 = target: T2, EphB3 (Homo sapiens, UniProt P54753)
T2 sequence (P54753 1-998): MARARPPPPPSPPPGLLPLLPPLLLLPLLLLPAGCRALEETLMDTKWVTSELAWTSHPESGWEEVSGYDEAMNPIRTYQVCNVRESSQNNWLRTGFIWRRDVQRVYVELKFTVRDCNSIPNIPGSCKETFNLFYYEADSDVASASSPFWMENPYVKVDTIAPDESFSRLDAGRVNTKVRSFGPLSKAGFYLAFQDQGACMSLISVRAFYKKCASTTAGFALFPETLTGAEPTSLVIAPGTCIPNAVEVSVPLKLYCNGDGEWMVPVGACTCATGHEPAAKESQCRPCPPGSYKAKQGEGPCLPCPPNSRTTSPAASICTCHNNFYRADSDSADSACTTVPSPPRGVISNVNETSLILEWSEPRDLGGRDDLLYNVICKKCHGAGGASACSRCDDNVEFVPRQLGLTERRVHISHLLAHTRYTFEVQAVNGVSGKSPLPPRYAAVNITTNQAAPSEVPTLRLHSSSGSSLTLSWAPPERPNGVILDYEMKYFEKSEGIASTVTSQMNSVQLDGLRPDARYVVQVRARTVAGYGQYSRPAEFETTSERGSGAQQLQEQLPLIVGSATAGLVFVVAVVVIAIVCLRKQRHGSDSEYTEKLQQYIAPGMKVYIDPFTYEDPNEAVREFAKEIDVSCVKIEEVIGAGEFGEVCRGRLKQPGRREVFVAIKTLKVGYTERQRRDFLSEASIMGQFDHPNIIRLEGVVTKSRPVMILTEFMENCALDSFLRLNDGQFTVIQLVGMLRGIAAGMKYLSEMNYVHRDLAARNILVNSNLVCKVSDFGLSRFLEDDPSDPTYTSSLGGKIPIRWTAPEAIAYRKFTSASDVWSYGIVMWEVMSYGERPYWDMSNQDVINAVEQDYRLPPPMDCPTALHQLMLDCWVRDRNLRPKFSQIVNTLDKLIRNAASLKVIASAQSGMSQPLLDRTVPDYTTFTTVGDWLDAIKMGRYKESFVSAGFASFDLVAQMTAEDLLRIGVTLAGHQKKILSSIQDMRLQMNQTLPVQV

CDK2 = CDK2 (Homo sapiens, UniProt P24941)

Sequence of CaMK1g (Q96NX5 whole entry): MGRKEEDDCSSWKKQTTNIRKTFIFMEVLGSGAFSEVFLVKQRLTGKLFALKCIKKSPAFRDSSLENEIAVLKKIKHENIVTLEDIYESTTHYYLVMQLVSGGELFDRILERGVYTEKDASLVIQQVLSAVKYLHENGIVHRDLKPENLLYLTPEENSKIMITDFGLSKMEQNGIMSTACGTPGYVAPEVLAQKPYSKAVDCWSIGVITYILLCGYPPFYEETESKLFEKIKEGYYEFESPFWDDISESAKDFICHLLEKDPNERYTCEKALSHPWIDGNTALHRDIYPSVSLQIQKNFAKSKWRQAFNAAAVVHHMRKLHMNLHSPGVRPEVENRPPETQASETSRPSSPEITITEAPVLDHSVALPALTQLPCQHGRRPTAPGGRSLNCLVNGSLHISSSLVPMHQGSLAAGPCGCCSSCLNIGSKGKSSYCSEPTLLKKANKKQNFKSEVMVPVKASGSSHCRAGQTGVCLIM
Sequence of CK2a1 (P68400 whole entry): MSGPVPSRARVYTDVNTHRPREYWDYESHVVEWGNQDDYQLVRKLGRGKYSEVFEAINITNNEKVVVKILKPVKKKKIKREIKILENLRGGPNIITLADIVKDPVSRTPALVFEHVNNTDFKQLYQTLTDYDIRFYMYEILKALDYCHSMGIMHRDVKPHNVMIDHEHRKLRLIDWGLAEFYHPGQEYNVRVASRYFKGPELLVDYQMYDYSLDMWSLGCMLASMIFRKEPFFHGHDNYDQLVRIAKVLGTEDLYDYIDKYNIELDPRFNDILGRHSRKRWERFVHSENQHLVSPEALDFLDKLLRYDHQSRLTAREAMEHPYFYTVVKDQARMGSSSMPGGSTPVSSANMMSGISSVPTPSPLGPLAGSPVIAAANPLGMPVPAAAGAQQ
Sequence of GPRK5 (P34947 whole entry): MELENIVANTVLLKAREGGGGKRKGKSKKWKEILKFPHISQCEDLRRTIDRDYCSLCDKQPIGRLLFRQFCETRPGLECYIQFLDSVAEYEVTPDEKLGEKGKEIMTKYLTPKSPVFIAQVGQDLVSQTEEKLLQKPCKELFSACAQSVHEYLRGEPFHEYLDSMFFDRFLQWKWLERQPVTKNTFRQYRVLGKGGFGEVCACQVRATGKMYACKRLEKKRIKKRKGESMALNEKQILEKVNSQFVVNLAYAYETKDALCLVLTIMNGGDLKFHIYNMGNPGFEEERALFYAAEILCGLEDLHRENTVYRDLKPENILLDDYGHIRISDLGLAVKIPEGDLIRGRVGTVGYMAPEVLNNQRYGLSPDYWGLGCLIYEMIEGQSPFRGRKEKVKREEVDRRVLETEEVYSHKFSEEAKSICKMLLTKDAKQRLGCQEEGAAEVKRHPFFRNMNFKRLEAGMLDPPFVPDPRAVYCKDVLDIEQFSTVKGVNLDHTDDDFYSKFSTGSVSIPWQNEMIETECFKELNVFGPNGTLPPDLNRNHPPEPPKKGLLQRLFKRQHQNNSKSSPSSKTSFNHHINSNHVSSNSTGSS
Sequence of MELK (Q14680 whole entry): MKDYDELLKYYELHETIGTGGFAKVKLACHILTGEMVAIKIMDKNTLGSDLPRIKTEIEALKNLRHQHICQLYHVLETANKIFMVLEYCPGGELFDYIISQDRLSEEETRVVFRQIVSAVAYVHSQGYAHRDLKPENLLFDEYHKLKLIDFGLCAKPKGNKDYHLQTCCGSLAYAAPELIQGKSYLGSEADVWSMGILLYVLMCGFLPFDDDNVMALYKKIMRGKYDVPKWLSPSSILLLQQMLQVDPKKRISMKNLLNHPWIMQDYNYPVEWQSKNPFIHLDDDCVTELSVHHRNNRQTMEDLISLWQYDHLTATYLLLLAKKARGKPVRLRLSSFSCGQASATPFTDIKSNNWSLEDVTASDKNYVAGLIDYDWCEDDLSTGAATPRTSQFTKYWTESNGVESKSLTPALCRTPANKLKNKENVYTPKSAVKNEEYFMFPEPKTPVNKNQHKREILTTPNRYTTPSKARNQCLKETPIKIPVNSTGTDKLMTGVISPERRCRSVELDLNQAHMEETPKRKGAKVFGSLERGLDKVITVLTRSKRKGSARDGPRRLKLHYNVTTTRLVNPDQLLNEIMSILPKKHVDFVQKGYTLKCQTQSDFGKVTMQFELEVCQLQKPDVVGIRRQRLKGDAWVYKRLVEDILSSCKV
Sequence of PIM1 (P11309 whole entry): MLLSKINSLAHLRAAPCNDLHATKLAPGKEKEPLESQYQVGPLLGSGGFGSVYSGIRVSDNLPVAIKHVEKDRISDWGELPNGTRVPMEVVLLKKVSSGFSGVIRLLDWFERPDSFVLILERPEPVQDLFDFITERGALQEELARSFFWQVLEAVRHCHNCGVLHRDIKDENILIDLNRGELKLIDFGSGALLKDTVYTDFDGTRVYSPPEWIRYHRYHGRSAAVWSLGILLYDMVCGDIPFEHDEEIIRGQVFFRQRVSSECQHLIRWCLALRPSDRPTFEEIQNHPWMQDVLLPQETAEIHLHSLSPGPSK
Sequence of Erk2 (P28482 whole entry): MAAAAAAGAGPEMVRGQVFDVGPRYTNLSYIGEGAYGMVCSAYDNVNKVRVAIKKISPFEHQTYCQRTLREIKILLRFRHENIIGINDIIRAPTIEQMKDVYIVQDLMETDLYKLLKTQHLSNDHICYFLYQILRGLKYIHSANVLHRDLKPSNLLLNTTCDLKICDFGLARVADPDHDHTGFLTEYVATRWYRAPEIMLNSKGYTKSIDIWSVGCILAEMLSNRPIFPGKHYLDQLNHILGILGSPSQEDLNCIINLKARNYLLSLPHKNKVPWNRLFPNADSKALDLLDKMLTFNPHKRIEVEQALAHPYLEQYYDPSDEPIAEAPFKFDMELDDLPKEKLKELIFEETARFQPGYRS
Sequence of FGFR2 (P21802 whole entry): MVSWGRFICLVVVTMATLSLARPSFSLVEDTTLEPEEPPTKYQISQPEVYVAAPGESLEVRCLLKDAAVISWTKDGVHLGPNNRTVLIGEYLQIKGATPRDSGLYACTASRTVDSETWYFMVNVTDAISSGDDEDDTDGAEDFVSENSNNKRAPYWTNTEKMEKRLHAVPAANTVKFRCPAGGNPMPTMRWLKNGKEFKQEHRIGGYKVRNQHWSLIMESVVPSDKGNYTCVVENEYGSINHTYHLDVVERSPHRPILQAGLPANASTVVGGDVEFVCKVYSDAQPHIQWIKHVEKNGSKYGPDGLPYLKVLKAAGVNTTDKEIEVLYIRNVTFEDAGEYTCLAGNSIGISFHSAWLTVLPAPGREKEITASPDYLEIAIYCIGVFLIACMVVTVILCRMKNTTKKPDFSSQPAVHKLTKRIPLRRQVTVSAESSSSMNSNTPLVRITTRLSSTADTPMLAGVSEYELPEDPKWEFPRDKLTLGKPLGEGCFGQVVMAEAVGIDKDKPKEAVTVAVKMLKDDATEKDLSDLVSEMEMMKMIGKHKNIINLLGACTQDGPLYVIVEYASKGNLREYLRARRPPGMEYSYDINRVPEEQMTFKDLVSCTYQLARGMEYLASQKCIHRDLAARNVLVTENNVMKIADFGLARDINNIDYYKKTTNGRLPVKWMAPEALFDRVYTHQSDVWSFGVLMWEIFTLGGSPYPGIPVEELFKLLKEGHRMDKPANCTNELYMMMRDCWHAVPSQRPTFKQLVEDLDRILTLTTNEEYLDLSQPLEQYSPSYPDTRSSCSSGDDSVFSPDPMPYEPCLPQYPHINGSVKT
Sequence of NEK7 (Q8TDX7 whole entry): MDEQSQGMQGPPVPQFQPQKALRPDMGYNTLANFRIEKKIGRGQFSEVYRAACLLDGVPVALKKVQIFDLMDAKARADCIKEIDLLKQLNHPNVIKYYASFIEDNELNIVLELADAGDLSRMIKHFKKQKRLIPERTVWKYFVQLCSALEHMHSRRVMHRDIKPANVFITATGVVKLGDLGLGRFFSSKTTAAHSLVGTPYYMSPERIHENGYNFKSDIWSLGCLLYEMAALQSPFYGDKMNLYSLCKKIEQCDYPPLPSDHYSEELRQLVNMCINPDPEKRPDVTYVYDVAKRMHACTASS
Sequence of FES (P07332 whole entry): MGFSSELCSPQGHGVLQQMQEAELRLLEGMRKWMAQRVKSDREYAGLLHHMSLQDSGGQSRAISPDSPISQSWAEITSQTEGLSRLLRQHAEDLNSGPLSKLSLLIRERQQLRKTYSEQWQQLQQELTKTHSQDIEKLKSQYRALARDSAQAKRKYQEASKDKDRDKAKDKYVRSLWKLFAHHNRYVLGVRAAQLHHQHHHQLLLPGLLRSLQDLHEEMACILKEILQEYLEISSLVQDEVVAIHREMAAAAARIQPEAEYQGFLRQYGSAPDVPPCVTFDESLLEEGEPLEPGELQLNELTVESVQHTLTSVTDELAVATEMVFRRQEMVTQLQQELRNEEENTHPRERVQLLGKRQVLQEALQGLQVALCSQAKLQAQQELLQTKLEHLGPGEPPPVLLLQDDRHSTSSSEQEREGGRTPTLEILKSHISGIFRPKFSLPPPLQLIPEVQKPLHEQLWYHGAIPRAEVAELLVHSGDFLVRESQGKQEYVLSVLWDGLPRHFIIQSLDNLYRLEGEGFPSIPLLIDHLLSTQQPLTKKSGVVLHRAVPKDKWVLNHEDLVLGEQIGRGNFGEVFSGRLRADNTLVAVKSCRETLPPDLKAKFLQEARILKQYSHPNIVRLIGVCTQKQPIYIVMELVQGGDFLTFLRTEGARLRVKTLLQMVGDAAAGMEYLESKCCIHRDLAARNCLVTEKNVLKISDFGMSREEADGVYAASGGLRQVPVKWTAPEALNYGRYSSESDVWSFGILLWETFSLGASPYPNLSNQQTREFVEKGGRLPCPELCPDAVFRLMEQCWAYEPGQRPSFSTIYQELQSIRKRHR

CNc1ncc2cc(-c3ccc(-c4cccc(C)n4)cc3Cl)c(=O)n(CCCCN)c2n1 [compound 20, MRLW5]
ΔTm MRLW5 (20) (CaMK1g): 3.9 °C | ΔTm MRLW5 (20) (NEK7): -0.1 °C | ΔTm MRLW5 (20) (MELK): 8.0 °C | ΔTm MRLW5 (20) (FGFR2): 1.9 °C | ΔTm MRLW5 (20) (MARK3): 9.3 °C | ΔTm MRLW5 (20) (CK2a1): -0.2 °C | ΔTm MRLW5 (20) (DCAMKL1): 1.0 °C | ΔTm MRLW5 (20) (PIM1): -0.1 °C | ΔTm MRLW5 (20) (FES): 5.9 °C | ΔTm MRLW5 (20) (GPRK5): 0.5 °C | ΔTm MRLW5 (20) (Erk2): 1.3 °C | ΔTm MRLW5 (20) (EphB3): 2.5 °C | ΔTm MRLW5 (20) (CDK2): 1.3 °C

CNc1ncc2cc(-c3ccc(-c4cccc(C)n4)cc3Cl)c(=O)n(CCC3CCNCC3)c2n1 [compound 22, 6-(2-Chloro-4-(6-methylpyridin-2-yl)phenyl)-2-(methylamino)-8-(2-(piperidin-4-yl)ethyl)pyrido[2,3-d]pyrimidin-7(8H)-one]
ΔTm 22 (CaMK1g): 5.1 °C | ΔTm 22 (NEK7): 0.2 °C | ΔTm 22 (MELK): 8.5 °C | ΔTm 22 (FGFR2): 3.9 °C | ΔTm 22 (MARK3): 8.8 °C | ΔTm 22 (CK2a1): -0.6 °C | ΔTm 22 (DCAMKL1): 0.7 °C | ΔTm 22 (PIM1): -0.4 °C | ΔTm 22 (FES): 5.4 °C | ΔTm 22 (GPRK5): -1.4 °C | ΔTm 22 (Erk2): 2.8 °C | ΔTm 22 (EphB3): 2.6 °C | ΔTm 22 (CDK2): 2.5 °C

CNc1ncc2cc(-c3ccc(-c4cccc(C)n4)cc3Cl)c(=O)n(C[C@H]3CC[C@H](N)CC3)c2n1 [compound 23, 23]
ΔTm 23 (CaMK1g): 9.5 °C | ΔTm 23 (NEK7): -0.3 °C | ΔTm 23 (MELK): 10.4 °C | ΔTm 23 (FGFR2): 2.9 °C | ΔTm 23 (MARK3): 10.4 °C | ΔTm 23 (CK2a1): -0.4 °C | ΔTm 23 (DCAMKL1): 4.6 °C | ΔTm 23 (PIM1): -0.7 °C | ΔTm 23 (FES): 5.5 °C | ΔTm 23 (GPRK5): 0.3 °C | ΔTm 23 (Erk2): 2.7 °C | ΔTm 23 (EphB3): 3.6 °C | ΔTm 23 (CDK2): 3.5 °C

Cc1cccc(-c2ccc(-c3cc4cnc(NC(CO)CO)nc4n(CCCCN)c3=O)c(Cl)c2)n1 [compound 24, 8-(4-Aminobutyl)-6-(2-chloro-4-(6-methylpyridin-2-yl)phenyl)-2-((1,3-dihydroxypropan-2-yl)amino)pyrido[2,3-d]pyrimidin-7(8H)-one]
ΔTm MR24 (24) (CaMK1g): 1.4 °C | ΔTm MR24 (24) (NEK7): -0.9 °C | ΔTm MR24 (24) (MELK): 5.5 °C | ΔTm MR24 (24) (FGFR2): 0.8 °C | ΔTm MR24 (24) (MARK3): 5.8 °C | ΔTm MR24 (24) (CK2a1): 0.0 °C | ΔTm MR24 (24) (DCAMKL1): -2.0 °C | ΔTm MR24 (24) (PIM1): 0.5 °C | ΔTm MR24 (24) (FES): 4.3 °C | ΔTm MR24 (24) (GPRK5): -1.0 °C | ΔTm MR24 (24) (Erk2): -0.9 °C | ΔTm MR24 (24) (EphB3): 0.2 °C | ΔTm MR24 (24) (CDK2): 1.2 °C

Cc1cccc(-c2ccc(-c3cc4cnc(NCCCc5ccc(N)cc5)nc4n(CCCCN)c3=O)c(Cl)c2)n1 [compound 25, 8-(4-Aminobutyl)-2-((3-(4-aminophenyl)propyl)amino)-6-(2-chloro-4-(6-methylpyridin-2-yl)phenyl)pyrido[2,3-d]pyrimidin-7(8H)-one]
ΔTm 25 (CaMK1g): 6.5 °C | ΔTm 25 (NEK7): -0.5 °C | ΔTm 25 (MELK): 2.4 °C | ΔTm 25 (FGFR2): 1.7 °C | ΔTm 25 (MARK3): 8.6 °C | ΔTm 25 (CK2a1): -0.4 °C | ΔTm 25 (DCAMKL1): 0.1 °C | ΔTm 25 (PIM1): 0.3 °C | ΔTm 25 (FES): 5.9 °C | ΔTm 25 (GPRK5): 0.6 °C | ΔTm 25 (Erk2): 3.1 °C | ΔTm 25 (EphB3): 2.8 °C | ΔTm 25 (CDK2): 4.9 °C

Cc1cccc(-c2ccc(-c3cc4cnc(NCCCN5CCOCC5)nc4n(CCCCN)c3=O)c(Cl)c2)n1 [compound 26, MR26]
ΔTm MR26 (26) (CaMK1g): 4.3 °C | ΔTm MR26 (26) (NEK7): -0.7 °C | ΔTm MR26 (26) (MELK): 5.0 °C | ΔTm MR26 (26) (FGFR2): 1.4 °C | ΔTm MR26 (26) (MARK3): 5.4 °C | ΔTm MR26 (26) (CK2a1): 0.6 °C | ΔTm MR26 (26) (DCAMKL1): -2.0 °C | ΔTm MR26 (26) (PIM1): 0.3 °C | ΔTm MR26 (26) (FES): 5.6 °C | ΔTm MR26 (26) (GPRK5): -0.5 °C | ΔTm MR26 (26) (Erk2): 0.2 °C | ΔTm MR26 (26) (EphB3): 2.4 °C | ΔTm MR26 (26) (CDK2): 0.9 °C

Reference: publication doi:10.1101/2023.11.24.568596v1 (biorxiv, 2023)
